Assay results taken from US20040044226A1, “Estrogen receptor modulators” (priority 2003, published 2004).

Tested on: MCF-7 cells
Experiment: MCF-7 Estrogen Dependent Proliferation Assay
Type: cell-based
Settings: Homo sapiens, MCF7, estradiol added to Estrogen Depleted Media (EDM), read-out: EC50 of stimulation of growth of MCF-7 cells
Source text: MCF-7 Estrogen Dependent Proliferation Assay MCF-7 cells (ATCC #HTUB-22) are human mammary gland adenocarcinoma cells that require estrogen for growth. The growth media (GM) for the MCF-7 cells is Minimum Essential Media (without phenol red) supplemented with fetal bovine serum(FBS) to 10%. The FBS serves as the sole source of estrogen and this GM supports the full growth of the cells and is used for the routine growth of the cell cultures. When MCF-7 cells are placed in a media in which 10% Charcoal-Dextran treated fetal bovine serum (CD-FBS) is substituted for FBS, the cells will cease to divide but will remain viable. […] The addition of estradiol to EDM stimulates the growth of the MCF-7 cells in a dose dependent manner with an EC50 of […]. Growing MCF-7 cells are washed several times with EDM and the cultures then maintained in EDM for a minimum of 6 days in order to deplete the cells of endogenous estrogen. On day 0 (at the start of the assay), these estrogen depleted cells are plated into 96-well cell culture plates at a density of 1000 cells/well in EDM in a volume of 180 ul/well. […] At this point, the culture supernatants are aspirated, the cells washed 2× with PBS, the wash solution aspirated and the protein content of each well determined. Each drug dilution is evaluated on a minimum of 5 wells and the range of dilution of the test compounds in the assay is 0.001 nM to 1000 nM. […]

## C[C@]12CC[C@@H]3c4ccc(O)cc4CC[C@H]3[C@@H]1CC[C@@H]2O [estradiol]
  EC50: 2 pM
